Source: BindingDB's records for doi:10.1002/cbic.201300187 (The Johns Hopkins University, 2013)

Target: T1, 1-deoxy-D-xylulose-5-phosphate synthase (Escherichia coli (strain K12), UniProt P77488)
T1 sequence (P77488 whole entry): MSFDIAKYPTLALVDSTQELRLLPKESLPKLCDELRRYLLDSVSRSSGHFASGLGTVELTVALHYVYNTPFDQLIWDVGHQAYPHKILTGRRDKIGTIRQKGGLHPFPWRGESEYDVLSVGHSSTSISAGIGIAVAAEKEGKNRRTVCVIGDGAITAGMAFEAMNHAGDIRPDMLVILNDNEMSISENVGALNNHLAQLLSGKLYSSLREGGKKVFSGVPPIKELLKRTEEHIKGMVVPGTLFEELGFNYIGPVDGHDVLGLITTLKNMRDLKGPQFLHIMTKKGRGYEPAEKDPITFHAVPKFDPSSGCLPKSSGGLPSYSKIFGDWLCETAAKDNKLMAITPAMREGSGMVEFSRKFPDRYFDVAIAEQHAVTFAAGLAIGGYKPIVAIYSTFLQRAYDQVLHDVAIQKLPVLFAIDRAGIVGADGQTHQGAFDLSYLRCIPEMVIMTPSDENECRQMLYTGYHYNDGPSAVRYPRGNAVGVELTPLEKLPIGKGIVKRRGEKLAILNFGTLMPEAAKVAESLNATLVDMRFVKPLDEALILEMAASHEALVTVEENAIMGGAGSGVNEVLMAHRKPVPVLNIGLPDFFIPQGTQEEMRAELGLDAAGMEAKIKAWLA
Assay: DXP Synthase Inhibition Assay
Details: pH 8; 37 °C
Procedure: Reaction mixtures containing HEPES (100mM, pH 8.0, 2mM MgCl2, 5mM NaCl), ThDP (1mM), BSA (1mg/mL), DMSO (10%, v/v), ᴅ-GAP (30µM), pyruvate (80µM), and various concentrations of nitroso inhibitor were preincubated at 37°C for 5 min. Enzyme reactions were initiated by addition of DXP synthase (0.1µM). Aliquots (150µL) of the enzymatic mixture were removed between 0.5 and 3 min and quenched in ice-cold methanol (150µL).

Row | SMILES | IC50 [µM]
1 | Cc1nn(C(C)C)c(C)c1N=O [1‐isopropyl‐3,5‐dimethyl‐4‐nitrosopyrazole (Substrate 9)] | > 2000
2 | COc1ccc2ccc(O)c(N=O)c2c1 [7‐methoxy‐1‐nitrosonaphthalen‐2‐ol (Substrate 8)] | > 2000
3 | CN(C)c1ccc(N=O)cc1 [NDMA (Substrate 4)] | 844
4 | O=Nc1ccccc1 [NOB] | 208
